Data published in patent US9670231B2, “Fused tricyclic amide compounds as multiple kinase inhibitors” (BEIGENE, LTD., priority 2013, dated 2017).
Where two headings read alike, the source gives them in different places.

Columns and labels:
Assay type in all cases: biochemical
[1] = molecular target: wild type B-Raf (Homo sapiens (Human), UniProt P15056); assay: WT BRaf IC50 assay, TR-FRET; parameters: Braf-WT Km ATP, % at 100 nM: scale not given here; conditions: for Braf-WT Km ATP, % at 100 nM: at 100 nM compound
wild type B-Raf, sequence (P15056 whole entry): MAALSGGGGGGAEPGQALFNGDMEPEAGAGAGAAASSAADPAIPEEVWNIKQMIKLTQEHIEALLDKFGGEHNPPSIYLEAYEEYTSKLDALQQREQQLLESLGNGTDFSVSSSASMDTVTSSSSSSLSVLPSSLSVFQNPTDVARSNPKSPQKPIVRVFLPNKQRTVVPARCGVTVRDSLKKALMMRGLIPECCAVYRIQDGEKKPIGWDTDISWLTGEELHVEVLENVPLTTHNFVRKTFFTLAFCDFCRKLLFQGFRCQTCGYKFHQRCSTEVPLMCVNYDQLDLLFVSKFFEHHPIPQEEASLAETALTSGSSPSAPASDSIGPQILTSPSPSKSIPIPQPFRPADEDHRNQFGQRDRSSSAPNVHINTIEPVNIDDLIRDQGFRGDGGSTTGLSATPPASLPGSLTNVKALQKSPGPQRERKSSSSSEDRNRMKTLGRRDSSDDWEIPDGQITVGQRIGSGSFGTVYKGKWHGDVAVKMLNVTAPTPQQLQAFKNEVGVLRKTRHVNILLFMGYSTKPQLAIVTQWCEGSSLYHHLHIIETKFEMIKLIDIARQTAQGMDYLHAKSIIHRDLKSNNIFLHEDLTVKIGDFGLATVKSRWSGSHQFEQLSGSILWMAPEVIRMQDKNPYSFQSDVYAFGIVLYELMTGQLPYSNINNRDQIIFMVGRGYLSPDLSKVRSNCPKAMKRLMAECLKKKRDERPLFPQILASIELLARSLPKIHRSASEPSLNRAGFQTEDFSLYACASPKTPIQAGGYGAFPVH
Method: WT BRaf IC50 Assay Protocol
Compounds disclosed herein were tested against wild type B-Raf (PV3848, from Invitrogen) in a time-resolved fluorescence energy transfer assay. […] The enzyme was incubated with the compounds disclosed herein at room temperature for 120 minutes and the reactions were initiated by the addition of ATP and GST-MEK1. After incubating at room temperature for 60 minutes, an equal volume of stop buffer containing 25 mM Tris pH7.4, 400 mM KF, 50 mM EDTA, 0.1% BSA, 0.01% Triton X-100, 1 test of Eu3+Cryptate-conjugated rabbit polyclonal antibody anti-Phospho MEK1/2 (Ser217/221) and 1 test of d2-conjugated mouse monoclonal antibody anti-glutathione S-transferase was added to stop the reactions. Plates were sealed and incubated at room temperature for 1.5 hours, and then the TR-FRET signals were read on BMG PHERAstar FS instrument. The IC50 for each compound was calculated by non linear regression by Graphpad Prism software.

[2] = molecular target: WT EGFR kinase domain (Homo sapiens (Human), UniProt P00533); assay: EGFR enzymatic assay, TR-FRET, WT EGFR
WT EGFR kinase domain, sequence (P00533 669-1210): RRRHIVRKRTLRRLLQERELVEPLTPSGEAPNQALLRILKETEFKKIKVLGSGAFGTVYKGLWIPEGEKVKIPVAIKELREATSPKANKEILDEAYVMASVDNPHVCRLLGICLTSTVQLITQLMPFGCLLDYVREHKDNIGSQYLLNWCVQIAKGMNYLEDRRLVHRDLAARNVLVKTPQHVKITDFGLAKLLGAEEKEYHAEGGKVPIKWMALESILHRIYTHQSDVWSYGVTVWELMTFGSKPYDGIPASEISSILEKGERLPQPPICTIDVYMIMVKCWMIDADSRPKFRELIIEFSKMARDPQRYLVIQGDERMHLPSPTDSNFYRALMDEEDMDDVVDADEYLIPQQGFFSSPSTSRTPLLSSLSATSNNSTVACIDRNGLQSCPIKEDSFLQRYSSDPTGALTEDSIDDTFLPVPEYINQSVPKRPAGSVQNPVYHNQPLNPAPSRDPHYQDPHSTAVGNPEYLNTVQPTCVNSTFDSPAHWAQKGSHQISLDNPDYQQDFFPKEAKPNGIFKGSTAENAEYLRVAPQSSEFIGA
Method: (§1) Compounds disclosed herein were tested against WT EGFR kinase domain (aa.669-1210, Carna Biosciences, 08-115), EGFR T790M/L858R kinase domain (aa.669-1210, Carna Biosciences, 08-510) and EGFR L858R kinase domain (aa.669-1210, Carna Biosciences, 08-502) in assays based on time-resolved fluorescence-resonance energy transfer methodology. The assay was carried out in 384-well low volume black plate in a reaction mixture containing EGFR kinases, 20 LM for EGFR WT and T790M/L858R, and 125 LM for EGFR L858R), biotin-TK substrate and 0-5 LM compounds in buffer containing 50 mM HEPES pH7.5, 10 mM MgCl2, 1 mM EGTA, 0.01% Brij-35, 2.5 mM DTT, 0.1% BSA. The kinase was incubated with the compounds disclosed herein at room temperature for 120 minutes and the reaction was initiated by the addition of ATP and biotin-TK substrate. After reaction at room temperature for 30 minutes, an equal volume of stop/detection solution was added according to the manufacture's instruction (CisBio Bioassays). The stop/detection solution contained TK-Antibody-Cryptate and Streptavidin-XL665 in buffer containing 25 mM Tris pH7.4, 400 mM KF, 50 mM EDTA, 0.01% BSA, 0.01% Triton X-100. Plates were sealed and incubated at room temperature for 1 hour, and the TR-FRET signals were read on BMG PHERAstar FS instrument. The IC50 of an inhibitor was derived from fitting the % inhibition data at each compound concentration to the four-parameter logistic equation by Graphpad Prism software.

[3] = molecular target: EGFR T790M/L858R kinase domain (Homo sapiens (Human), UniProt P00533, L858R/T790M); assay: EGFR enzymatic assay, TR-FRET, EGFR T790M/L858R
EGFR T790M/L858R kinase domain, sequence (P00533 669-1210 T790M/L858R): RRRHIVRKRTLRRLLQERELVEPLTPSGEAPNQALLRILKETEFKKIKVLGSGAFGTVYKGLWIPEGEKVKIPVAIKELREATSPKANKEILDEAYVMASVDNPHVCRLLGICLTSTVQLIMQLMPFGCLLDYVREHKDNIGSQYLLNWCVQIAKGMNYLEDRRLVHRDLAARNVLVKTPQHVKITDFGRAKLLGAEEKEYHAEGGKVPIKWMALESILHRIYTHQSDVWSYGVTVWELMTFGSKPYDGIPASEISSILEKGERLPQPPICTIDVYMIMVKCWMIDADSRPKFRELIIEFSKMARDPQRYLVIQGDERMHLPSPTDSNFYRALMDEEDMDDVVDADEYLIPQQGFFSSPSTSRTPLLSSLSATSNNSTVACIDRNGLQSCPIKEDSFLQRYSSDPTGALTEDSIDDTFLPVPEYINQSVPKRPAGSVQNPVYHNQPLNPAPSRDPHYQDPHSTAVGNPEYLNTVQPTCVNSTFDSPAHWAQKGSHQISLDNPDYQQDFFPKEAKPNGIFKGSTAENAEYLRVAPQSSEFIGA
Method: as §1

[4] = molecular target: C-Raf (Y340D/Y341D) (Homo sapiens (Human), UniProt P04049, Y340D/Y341D); assay: Raf IC50 assay, TR-FRET, C-Raf (Y340D/Y341D); conditions: 0.1 mM ATP
C-Raf (Y340D/Y341D), sequence (P04049 whole entry Y340D/Y341D): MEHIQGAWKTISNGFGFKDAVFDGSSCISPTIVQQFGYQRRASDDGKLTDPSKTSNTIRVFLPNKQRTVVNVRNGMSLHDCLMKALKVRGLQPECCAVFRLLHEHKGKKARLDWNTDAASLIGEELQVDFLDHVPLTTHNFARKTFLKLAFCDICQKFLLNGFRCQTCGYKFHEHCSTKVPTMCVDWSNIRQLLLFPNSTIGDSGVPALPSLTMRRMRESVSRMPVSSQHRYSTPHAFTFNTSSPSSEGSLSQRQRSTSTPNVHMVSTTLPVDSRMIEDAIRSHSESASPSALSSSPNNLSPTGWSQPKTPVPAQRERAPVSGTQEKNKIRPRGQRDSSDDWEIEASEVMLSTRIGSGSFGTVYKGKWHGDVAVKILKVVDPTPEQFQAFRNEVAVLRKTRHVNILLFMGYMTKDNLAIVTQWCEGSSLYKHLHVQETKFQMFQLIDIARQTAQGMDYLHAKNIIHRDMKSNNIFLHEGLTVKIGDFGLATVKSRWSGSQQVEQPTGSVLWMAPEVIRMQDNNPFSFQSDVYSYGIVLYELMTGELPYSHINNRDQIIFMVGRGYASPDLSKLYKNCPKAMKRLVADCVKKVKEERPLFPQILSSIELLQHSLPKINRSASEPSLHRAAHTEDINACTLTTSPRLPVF
Method: Compounds disclosed herein were tested against B-Raf (V600E) (PV3849, from Invitrogen) or C-Raf (Y340D/Y341D) (PV3805, from Invitrogen) in a time-resolved fluorescence energy transfer assay. The assay was carried out in reactions (10 μL) containing 0.0625 nM B-Raf or 0.5 nM C-Raf, 25 mM Tris pH7.4, 10 mM MgCl2, 0.5 mM EGTA, 0.5 mM Na3VO4, 5 mM beta-glycerophosphate, 0.01% Triton X-100, 2.5 mM DTT, 0.1% BSA, 0.1 mM ATP, 13.7 nM GST-tagged MEK1 (Full-length protein with K97R mutation, recombinant protein purified from bacterial expression system) and 0-5 μM compounds disclosed herein (final concentration of 1% DMSO). The enzyme was incubated with the compounds disclosed herein at room temperature for 60 minutes and the reactions were initiated by the addition of ATP and GST-MEK1. After reaction at room temperature for 60 minutes, an equal volume of stop/detection solution was added according to the manufacture's instruction (CisBio Bioassays). The stop/detection solution contained Eu^3+ cryptate-conjugated anti-phospho MEK1/2 (Ser217/221) rabbit polyclonal antibody and d2-conjugated anti-GST mouse monoclonal antibody in buffer containing 25 mM Tris pH7.4, 400 mM KF, 50 mM EDTA, 0.01% BSA and 0.01% Triton X-100. Plates were sealed and incubated at room temperature for 2 hours, and the TR-FRET signals (ratio of fluorescence emission at 665 nm over emission at 620 nm with excitation at 337 nm wavelength) were recorded on a PHERAstar FS plate reader (BMG Labtech). Phosphorylation of MEK1 led to the binding of anti-phospho-MEK1/2 antibody to GST-MEK1 protein that place fluorescent donor (Eu^3+ crypate) in close proximity to the accepter d2 on the anti-GST antibody, thus resulting in a high degree of fluorescence resonance energy transfer from the donor fluorophore (at 620 nm) to the acceptor fluorophore (at 665 nm). […] The IC50 for each compound was derived from fitting the dose-response % inhibition data to the four-parameter logistic model by Graphpad Prism software.

[5] = molecular target: B-Raf (V600E) (Homo sapiens (Human), UniProt P15056, V600E); assay: Raf IC50 assay, TR-FRET, B-Raf (V600E); conditions: 0.1 mM ATP; read-out: IC50 BRAF-V600E
B-Raf (V600E), sequence (P15056 whole entry V600E): as the sequence (P15056 whole entry) above, with V600E counted along it
Method: The enzyme was incubated with the compounds disclosed herein at room temperature for 60 minutes and the reactions were initiated by the addition of ATP and GST-MEK1. After reaction at room temperature for 60 minutes, an equal volume of stop/detection solution was added according to the manufacture's instruction (CisBio Bioassays). […] The IC50 for each compound was derived from fitting the dose-response % inhibition data to the four-parameter logistic model by Graphpad Prism software.

[6] = molecular target: EGFR L858R kinase domain (Homo sapiens (Human), UniProt P00533, L858R); assay: EGFR enzymatic assay, TR-FRET, EGFR L858R
EGFR L858R kinase domain, sequence (P00533 669-1210 L858R): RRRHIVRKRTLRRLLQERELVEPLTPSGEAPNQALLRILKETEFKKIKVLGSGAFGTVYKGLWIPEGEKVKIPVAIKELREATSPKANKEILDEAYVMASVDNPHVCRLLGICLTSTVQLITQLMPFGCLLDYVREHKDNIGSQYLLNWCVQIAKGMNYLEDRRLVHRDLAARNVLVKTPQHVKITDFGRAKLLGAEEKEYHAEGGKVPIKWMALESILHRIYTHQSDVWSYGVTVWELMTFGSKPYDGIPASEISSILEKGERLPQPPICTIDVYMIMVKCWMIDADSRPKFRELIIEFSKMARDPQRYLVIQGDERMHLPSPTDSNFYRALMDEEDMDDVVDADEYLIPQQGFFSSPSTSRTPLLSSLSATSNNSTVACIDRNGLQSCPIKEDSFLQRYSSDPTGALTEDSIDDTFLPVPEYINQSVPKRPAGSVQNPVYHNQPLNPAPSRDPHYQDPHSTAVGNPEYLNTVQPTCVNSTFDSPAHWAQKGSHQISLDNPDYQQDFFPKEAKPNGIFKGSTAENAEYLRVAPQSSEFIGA
Method: as §1

[7] = Km ATP ([…] ATP), read-out: IC50 Braf-WT Km ATP

SMILES | IC50 ([1]; IC50 Braf-WT […] ATP, […] ATP) [nM] | IC50 [1, 7] [nM] | IC50 [2] [nM] | IC50 [3] [nM] | IC50 [4] [nM] | IC50 [5] [nM] | IC50 [6] [nM] | Braf-WT Km ATP, % at 100 nM [1] [% at 100 nM]
CCN1CCN(Cc2ccc(C(=O)N[C@@H]3[C@H]4Oc5ccc(Oc6ccnc7c6CCC(=O)N7)cc5[C@@H]34)cc2C(F)(F)F)CC1 [Compound 1.1, 4-((4-ethylpiperazin-1-yl)methyl)-N-((1S,1aS,6bS)-5-((7-oxo-5,6,7,8-tetrahydro-1,8-naphthyridin-4-yl)oxy)-1a,6b-dihydro-1H-cyclopropa[b]benzofuran-1-yl)-3-(trifluoromethyl)benzamide] | 27 | 9.5 | 0.5 | 0.1 | 0.94 | 5.3 | 0.11 | 
CN1CCN(Cc2ccc(C(=O)N[C@@H]3[C@H]4Oc5ccc(Oc6ccnc7c6CCC(=O)N7)cc5[C@@H]34)cc2C(F)(F)F)CC1 [Compound 1.3] | 36 | 14 | 0.7 | 0.088 | 1.9 | 7.1 | 0.079 | 
CCN1CCN(Cc2ccc(C(=O)N[C@@H]3[C@H]4Oc5ccc(Oc6ccnc7c6CCC(=O)N7)cc5[C@@H]34)cc2F)CC1 [Compound 1.4] | 31 | 7.9 | 1.4 | 2.3 | 1.5 | 8.1 | 0.46 | 
CCN1CCN(Cc2cc(C(=O)N[C@@H]3[C@H]4Oc5ccc(Oc6ccnc7c6CCC(=O)N7)cc5[C@@H]34)cc(C(F)(F)F)c2)CC1 [Compound 1.5] | 39 | 15 | 2.3 | 7.1 | 2.1 | 12 | 1 | 
O=C1CCc2c(Oc3ccc4c(c3)[C@H]3[C@H](NC(=O)c5ccc(CN6CCOCC6)c(C(F)(F)F)c5)[C@H]3O4)ccnc2N1 [Compound 1.7] | 130 | 36 | 9.8 | 54 | 3.5 | 36 | 16 | 
O=C1CCc2c(Oc3ccc4c(c3)[C@H]3[C@H](NC(=O)c5ccc(CN6CCCCC6)c(C(F)(F)F)c5)[C@H]3O4)ccnc2N1 [Compound 1.8] | 380 | 96 | 70 | 504 | 18 | 41 | 100 | 
O=C1CCc2c(Oc3ccc4c(c3)[C@H]3[C@H](NC(=O)c5ccc(CN6CCN7CCC[C@@H]7C6)c(C(F)(F)F)c5)[C@H]3O4)ccnc2N1 [Compound 1.12] | 33 | 9.4 | 0.67 | 0.21 | 1.3 | 9 | 0.16 | 
O=C1CCc2c(Oc3ccc4c(c3)[C@H]3[C@H](NC(=O)c5ccc(CN6CCn7c(nnc7C(F)(F)F)C6)c(C(F)(F)F)c5)[C@H]3O4)ccnc2N1 [Compound 1.14] |  | 20 |  |  | 1.7 | 20 |  | 
CN(C)Cc1ccc(C(=O)N[C@@H]2[C@H]3Oc4ccc(Oc5ccnc6c5CCC(=O)N6)cc4[C@@H]23)cc1C(F)(F)F [Compound 1.24] |  | 34 | 2.7 | 8.1 | 1.4 | 14 | 1.2 | 
CC(C)(N)c1cc(C(=O)N[C@@H]2[C@H]3Oc4ccc(Oc5ccnc6c5CCC(=O)N6)cc4[C@@H]23)cc(C(F)(F)F)c1 [Compound 1.25, 3-(2-aminopropan-2-yl)-N-((1S,1aS,6bS)-5-((7-oxo-5,6,7,8-tetrahydro-1,8-naphthyridin-4-yl)oxy)-1a,6b-dihydro-1H-cyclopropa[b]benzofuran-1-yl)-5-(trifluoromethyl)benzamide] | 3.4 | 1.4 | 0.48 | 1.2 | 0.25 | 0.71 | 0.15 | 
N#CC1(c2cccc(C(=O)N[C@@H]3[C@H]4Oc5ccc(Oc6ccnc7c6CCC(=O)N7)cc5[C@@H]34)c2)CC1 [Compound 1.46, 3-(1-cyanocyclopropyl)-N-((1S,1aS,6bS)-5-((7-oxo-5,6,7,8-tetrahydro-1,8-naphthyridin-4-yl)oxy)-1a,6b-dihydro-1H-cyclopropa[b]benzofuran-1-yl)benzamide] |  | 1.4 | 85 | 316 |  | 2.5 | 52 | 
CN1CCC(Oc2ccc(C(=O)N[C@@H]3[C@H]4Oc5ccc(Oc6ccnc7c6CCC(=O)N7)cc5[C@@H]34)cc2C(F)(F)F)CC1 [Compound 1.51, 4-((1-methylpiperidin-4-yl)oxy)-N-((1S,1aS,6bS)-5-((7-oxo-5,6,7,8-tetrahydro-1,8-naphthyridin-4-yl)oxy)-1a,6b-dihydro-1H-cyclopropa[b]benzofuran-1-yl)-3-(trifluoromethyl)benzamide] |  | 9.8 |  |  | 1.61 | 14 |  | 
O=C(/C=C/c1cccc(C(F)(F)F)c1)N[C@@H]1[C@H]2Oc3ccc(Oc4ccnc5c4CCC(=O)N5)cc3[C@@H]12 [Compound 1.53] |  |  | 678 | 1140 |  | 16 | 68 | 86
O=C1CCc2c(Oc3ccc4c(c3)[C@H]3[C@H](NC(=O)c5ccc(-c6ccccc6)o5)[C@H]3O4)ccnc2N1 [Compound 1.54] |  |  | 326 | 757 |  | 4.9 | 152 | 93
N[C@@H]1[C@H]2Oc3ccc(Oc4ccnc5c4CCC(=O)N5)cc3[C@@H]12 [Intermediate I, 5-(((1S,1aS,6bS)-1-amino-1a,6b-dihydro-1H-cyclopropa[b]benzofuran-5-yl)oxy)-3,4-dihydro-1,8-naphthyridin-2(1H)-one] |  |  |  |  | 277 | 2840 |  | −2
